Literature values, collected in patent US20070148722A1, “Method for determining the concentration of thrombin inhibitors” (priority 1999, published 2007).

Target: meizothrombin (Homo sapiens, UniProt P00734)
Conditions: theoretical background statement; affinity to atypical intermediate meizothrombin

Ki: > 0.1 nM
Substance: hirudin
